Assay results reported in US20260007634A1, “PHARMACEUTICAL COMPOSITIONS FOR THE TREATMENT OF ALLERGIC DISEASES” (KINKI UNIVERSITY, priority 2022, published 2026).

Experiments:
[1] = system: TSLP; test: Auricular tissue TSLP ELISA, atopic dermatitis mice; type: in vivo, mouse; details: day 7, topical application, control 317, vehicle 1533
Protocol: MC903 at 2 nM was applied to the right auricle of a 6-week-old male Balb/c (Japan SLC Inc.). Starting 8 h later, 5% norathyriol aqueous solution (1 mL of ethanol containing […] of norathyriol), betamethasone ointment, and delgocitinib ointment were applied to the auricle for 7 days. The measurement of auricular skin swelling was calculated by calipers. The day on which the first application of the compound was made was defined as day 0. Betamethasone and delgocitinib are currently in clinical use in atopic dermatitis and were used as control drugs in this example.
The mouse TSLP ELISA kit (R&D) was used for this measurement.

[2] = system: IL-6; test: BAFF-induced IL-6 secretion in B cells (ELISA); type: cell-based, mouse; details: DBA/1J spleen B cells; 10 μM compound, 100 ng/mL BAFF, 7 days; control 26.06, BAFF only 454.47
Protocol: Spleens were harvested from 6-week-old male DBA/1J mice and B cells were isolated. After isolation, the cells were cultured in RPMI 1640 medium for 1 day. Then, 10 μM mangiferin 8a and 10 μM norathyriol were added to B cells, and 100 ng/mL of BAFF was added to each 3 h later, and the cells were cultured for 7 days. After 7 days of culture, the culture supernatant was collected and IL-6 secretion was measured by enzyme-linked immunosorbent assay (ELISA). This assay was performed using a mouse IL-6 ELISA kit (R&D).

[3] = system: Treg cells; test: Treg cell activation in inflammation-induced mouse model (Foxp3 flow cytometry); type: in vivo; details: DBA/1J mice, Freund's complete adjuvant + bovine type2 collagen; oral 10 mg/kg daily 20 days; thymus cells; vs vehicle group
Protocol: Equal volume mixtures of Freund's complete adjuvant and Bovine type2 collagen were administered to 6-week-old male DBA/1J mice (Japan SLC Inc.) at 0.1 mL (day 0 of the study). 21 days later, DBA/1J mice were again injected with 0.1 mL of the above mixture for secondary immunization. After the second immunization, mice were orally treated with 10 mg/kg of mangiferin 8a and 10 mg/kg of norathyriol daily for 20 days. 20 days later, thymus glands were harvested from mice and stained with anti-CD4, anti-CD25 and anti-Foxp3 antibodies, which are Treg cell markers, and expression of Foxp3 (CD4 positive and CD25 positive) was measured using BD LSRFortessa.

[4] = system: B cells collected from mice; test: LPS-induced differentiation into mature B cells (IgM/IgD flow cytometry); type: cell-based, mouse; details: 10 μM compound, 10 μg/mL LPS, 10 days
Protocol: B cells collected from mice were cultured in RPMI 1640 medium for 1 day. Then, 10 μM mangiferin 8a and 10 μM norathyriol were added to B cell, and after 1 day of culture, 10 μg/mL of LPS was added, followed by 10 days of culture. After 10 days of culture, cells were stained with anti-IgM and anti-IgD antibodies, markers of B cells, and the expression of IgM and IgD was measured using BD LSRFortessa. Note that IgM negative and IgD negative indicates pre-B cells, IgM positive and IgD negative indicates immature B cells, and IgM positive and IgD positive indicates mature B cells.

[5] = system: B cells collected from mice; test: LPS-induced differentiation into plasma cells (CD138 flow cytometry); type: cell-based, mouse; details: 10 μM compound, 10 μg/mL LPS, 10 days; vs LPS-added group
Protocol: B cells collected from mice were cultured in RPMI 1640 medium for 1 day. Then, 10 μM mangiferin 8a and 10 μM norathyriol were added to B cell, and after 1 day of culture, 10 μg/mL of LPS was added, followed by 10 days of culture. After 10 days of culture, cells were stained with anti-CD138 antibody, a marker of plasma cells, and CD138 expression was measured using BD LSRFortessa.

[6] = target: T1, NIK (Mus musculus, UniProt Q9WUL6); test: LPS-induced NIK activation in B cells (Western blotting, phospho-NIK); type: cell-based; details: 10 μM compound 23 h, then 10 μg/mL LPS 1 h
T1 construct: Proteins were extracted with cell lysate and used as samples; endogenous in cells; host or cells: primary splenic B cells from 6-week-old male Balb/c mice
T1 sequence (Q9WUL6 whole entry): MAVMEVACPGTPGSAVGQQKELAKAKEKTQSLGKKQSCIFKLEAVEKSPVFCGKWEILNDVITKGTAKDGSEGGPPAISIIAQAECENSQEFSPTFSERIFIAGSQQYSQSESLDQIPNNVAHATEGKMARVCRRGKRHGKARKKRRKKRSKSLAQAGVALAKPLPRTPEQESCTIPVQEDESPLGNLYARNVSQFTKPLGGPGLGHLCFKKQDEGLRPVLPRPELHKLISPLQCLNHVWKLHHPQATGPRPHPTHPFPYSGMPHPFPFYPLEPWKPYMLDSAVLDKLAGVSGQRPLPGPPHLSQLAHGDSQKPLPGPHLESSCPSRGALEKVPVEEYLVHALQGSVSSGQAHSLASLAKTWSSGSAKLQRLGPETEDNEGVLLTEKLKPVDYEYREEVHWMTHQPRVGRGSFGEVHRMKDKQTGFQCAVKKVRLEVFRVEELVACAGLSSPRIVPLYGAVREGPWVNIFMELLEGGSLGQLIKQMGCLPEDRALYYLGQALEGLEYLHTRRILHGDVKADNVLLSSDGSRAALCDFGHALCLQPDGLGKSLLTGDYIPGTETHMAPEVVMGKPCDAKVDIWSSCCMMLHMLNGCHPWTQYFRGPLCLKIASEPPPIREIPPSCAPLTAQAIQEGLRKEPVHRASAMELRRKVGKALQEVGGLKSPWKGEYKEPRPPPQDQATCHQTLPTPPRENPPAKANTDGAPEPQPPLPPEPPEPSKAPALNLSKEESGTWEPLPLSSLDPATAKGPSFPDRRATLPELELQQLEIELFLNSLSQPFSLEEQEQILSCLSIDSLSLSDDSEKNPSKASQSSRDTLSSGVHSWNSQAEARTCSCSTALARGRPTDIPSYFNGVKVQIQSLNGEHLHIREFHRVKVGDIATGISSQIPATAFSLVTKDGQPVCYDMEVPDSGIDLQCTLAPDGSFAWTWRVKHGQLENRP
Protocol: (§1) Spleens were harvested from 6-week-old male Balb/c mice and B cells were isolated. After isolation, the cells were seeded in […] dish and cultured in RPMI 1640 medium for 1 day and used as control. In addition, B cells were seeded into 100 mm^2 dish, and after 1 day of culture, 10 μg/mL LPS was added and cultured for 1 h. Furthermore, B cells were seeded in […] dish, and after 1 day of culture, 10 μM mangiferin 8a and 10 μM norathyriol were added to B cells, and after 23 h, 10 μg/mL LPS was added to each, and the cells were incubated for 1 h. All were incubated at 37° C. and 5% CO2.
(§2) Proteins were extracted with cell lysate and used as samples. Each sample was transferred to a PVDF membrane after SDSPAGE and assayed with anti-phospho-NIK, anti-NIK, anti-NF-κB p52, anti-NF-κB p65 and anti-Lamin antibodies.
(§3) The antibody species is indicated in the vertical direction. Specifically, in the case of anti-phospho-NIK antibody (described as “Phospho-NIK”), anti-NIK antibody (described as “NIK”), anti-NF-κB p52 antibody (described as “NF-κB p52 nuclear”), anti-NF-κB p65 antibody (described as “NF-κB p65 nuclear”) and anti-Lamin antibody (described as “Lamin”).

[7] = system: TNFα; test: LPS-stimulated TNFα secretion in macrophages (ELISA); type: cell-based, mouse; details: 10 μM compound, 10 μg/mL LPS 2 days, control 24.11, LPS 421.13
Protocol: Mouse macrophages were used to examine the inhibition of compounds on TNFα secretion in LPS stimulation.
Mouse macrophages were cultured in RPMI 1640 medium for 1 day. Then, 10 μM mangiferin 8a and 10 μM norathyriol were added to macrophages, and after 1 day of culture, 10 μg/mL of LPS was added to each, followed by 2 days of culture.
Thus, the samples were divided into “control” with no treatment, “10 μg/mL LPS+10 μM mangiferin 8a” to which 10 μg/mL LPS and 10 μM mangiferin 8a were added, and “10 μg/mL LPS+10 μM norathyriol” to which 10 μg/mL LPS and 10 μM norathyriol were added and only 10 μg/mL LPS was added (“[…] LPS”).
After these samples were incubated for 2 days, the culture supernatant was collected and TNFα secretion was measured by enzyme-linked immunosorbent assay (ELISA). The mouse TNFα ELISA kit (R&D) was used for this measurement.

[8] = system: NF-κB p52; test: LPS-stimulated B cells, nuclear NF-κB p52 (Western blotting); type: cell-based, mouse; details: 10 μM compound; vs 10 μg/mL LPS
Protocol: as §1, §2, §3

phospho-NIK band (immunoblotting) [6]: fainter
Compound: O=c1c2cc(O)c(O)cc2oc2cc(O)cc(O)c12 [norathyriol, 1,3,6,7-tetrahydroxyxanthone]
TSLP secretion [1]: 1026 pg/mL
IL-6 secretion [2]: 61.39 pg/mL
Foxp3 expression (CD4 positive and CD25 positive) [3]: slightly increased
population IgM positive and IgD positive (mature B cells) ([4]; control 0.239, LPS only 20.7): 0.065%
population IgM positive and IgD negative (immature B cells) ([4]; control 1.91, LPS only 41.8): 2.14%
population IgM negative and IgD negative (pre-B cells) ([4]; control 96.7, LPS only 36.6): 97.7%
CD138 expression [5]: significantly decreased CD138 expression
TNFα secretion [7]: 68.13 pg/mL
nuclear NF-κB p52 band (immunoblotting) [8]: fainter
